# B1: ligE1: N. aromaticivorans beta-etherase, glutathione S-transferase-like polypeptide, recombinantly expressed in E. coli (protein)
# chain: MAANNTITFYDLALSTGATISPFVWATKYALKHKGFDLDVVPGGFTGILERTGGKTERLPAIVDDGEFVLDSWGIVEYLDAKYPDRPVLIPHESVAATLKALDNWFWNAAVGPWMFCFCQDYRDLSLPQDHEYVTHSREKMLGRKLEEVQAGREERLPKISAALEPLRAALAQHQWLGGSSPNYADYRIMGGILFTASVCKTPVLANDDPLRDWIERCLDLYGGLGRHPGLFPLFGLEQREGDPDLFNRAAGQGGIYKRNTGPESTRAETQRITEGMKK
# B2: ligE: S. paucimobilis ligE beta-etherase, positive control polypeptide (protein)
# chain: MARNNTITLYDLQLESGCTISPYVWRTKYALKHKGFDIDIVPGGFTGILERTGGRSERVPVIVDDGEWVLDSWVIAEYLDEKYPDRPMLFEGPTQKNLMKFLDNWLWSTAVGPWFRCYILDYHDLSLPQDRDYVRWSREQWFLGGQRLEDVQAGREDRLPLVPPTLEPFRRILAETKWLGGDQPNFADYSALAVFLWTASVARTPPLTEDDPLRDWLDRGFDLFDGLGRHPGMNPLFGLKLREGDPEPFVRQTGPAGAGGQALNKGPQTTKMPPRVAEKAD
# B3: LigF2: N. aromaticivorans beta-etherase, glutathione S-transferase-like polypeptide, recombinantly expressed in E. coli (protein)
# chain: MALKYYHAEPLANSLKSMVPLKEKGLAYESIYVDLHKFEQHQPWFTAINPEGQVPVLDHDGTIITHTTVINEYLEDAFPDAQPADAPLRPRDPVGAARMRYWNKFIDEHVMNYVSMHGWHRMVGVIARNIASGDFEKLLESIPLPDQRKKWATARSGFSEADLANATAKIEYALDKVEKQLGETKWLAGDTYTLADINFYSHCGAMVERMFPEMEVARRAPRLCEWRDRVAARPAVAEALKSEDRTAPGLRVWSGEVR
# Key:
# [1] = tested on: Escherichia coli; details: each compound alone, cited from earlier work; for antibacterial activity against Escherichia coli: benzaldehyde derivatives; for antimicrobial activity against Escherichia coli: known
# [2] = tested on: yeast Saccharomyces cerevisiae; details: each compound alone; cited from earlier work
# [3] = in vitro biochemical assay for beta-etherase activity on fluorescent substrate MUAV (clarified E. coli cell extracts, 4MU fluorescence)
# Description: This example describes a method for gene expression in E. coli, as well as beta-etherase biochemical assays. Expression of known and putative beta-etherase genes was performed using 5 ml cultures of the recombinant E. coli strains described herein in Luria Broth medium by induction of gene expression using isopropylthiogalactoside (IPTG) to a final concentration of 0.1 mM. Following induction, and cell harvest, the cells were disrupted using either sonication or the BPER (Invitrogen) cell lysis system.
# In vitro reactions were performed in a total volume of 200 ul and contained: 25 mM TrisHCl pH 7.5; 0.5 mM dithiothreitol; 1 mM glutathione; 0.05 mM or 0.1 mM MUAV; 10 ul of clarified cell extract used to initiate the reactions. Following incubation for 2.5 hours at room temperature, a 50 ul sample of the reactions was terminated using 150 uL of 300 mM glycine/NaOH buffer pH 9. The formation of 4 methylumbelliferone (4MU) upon hydrolysis of the aryl ether bond was monitored by the increase in fluorescence at λex=360 nm and λem=450 nm using a Spectramax UV/visible/fluorescent spectrophotometer.
# The total protein concentrations of the cell lysates were determined using the BCA reagent system for protein quantification (Pierce). […]
# [4] = reactions containing 0.1 mM MUAV substrate, E. coli cell extracts expressing the protein
molecule,measurement,setting,value
"O=Cc1ccc(O)c(O)c1O [2,3,4-trihydroxybenzaldehyde]",antibacterial activity against Escherichia coli,[1],antibacterial activity
"O=Cc1cccc(O)c1O [2,3-dihydroxybenzaldehyde]",antibacterial activity against Escherichia coli,[1],antibacterial activity
"O=Cc1c(O)cc(O)cc1O [2,4,6-trihydroxybenzaldehyde]",antibacterial activity against Escherichia coli,[1],antibacterial activity
"O=Cc1ccc(O)cc1O [2,4-dihydroxybenzaldehyde]",antibacterial activity against Escherichia coli,[1],antibacterial activity
"O=Cc1cc(O)ccc1O [2,5-dihydroxybenzaldehyde]",antibacterial activity against Escherichia coli,[1],antibacterial activity
COc1cccc(C=O)c1O [2-hydroxy-3-methoxybenzaldehyde],antibacterial activity against Escherichia coli,[1],antibacterial activity
COc1ccc(O)c(C=O)c1 [2-hydroxy-5-methoxybenzaldehyde],antibacterial activity against Escherichia coli,[1],antibacterial activity
O=Cc1ccccc1O [2-hydroxybenzaldehyde],antibacterial activity against Escherichia coli,[1],antibacterial activity
"COc1cc(O)cc(OC)c1C=O [4-hydroxy-2,6-dimethoxybenzaldehyde]",antibacterial activity against Escherichia coli,[1],antibacterial activity
O=Cc1ccc(O)cc1 [4-hydroxybenzaldehyde],antimicrobial activity against Escherichia coli,[1],antimicrobial activity
O=Cc1ccc(CO)o1 [5-hydroxymethylfurfural],antimicrobial activity against Escherichia coli,[1],antimicrobial activity
COc1ccc(C=O)cc1OC [Veratraldehyde],antifungal activity against the yeast Saccharomyces cerevisiae,[2],significant antifungal activities
O=C(O)C=Cc1ccccc1 [cinnamic acid],antifungal activity against the yeast Saccharomyces cerevisiae,[2],significant antifungal activities
O=Cc1ccco1 [furfural],antimicrobial activity against Escherichia coli,[1],antimicrobial activity
O=C(O)/C=C/c1cccc(O)c1 [m-coumaric acid],antifungal activity against the yeast Saccharomyces cerevisiae,[2],significant antifungal activities
O=C(O)/C=C/c1ccccc1O [o-coumaric acid],antifungal activity against the yeast Saccharomyces cerevisiae,[2],significant antifungal activities
O=C(O)/C=C/c1ccc(O)cc1 [p-coumaric acid],antifungal activity against the yeast Saccharomyces cerevisiae,[2],significant antifungal activities
COc1cc(C=O)cc(OC)c1O [syringaldehyde],antimicrobial activity against Escherichia coli,[1],antimicrobial activity
COc1cc(C(=O)O)ccc1O [vanillic acid],antifungal activity against the yeast Saccharomyces cerevisiae,[2],significant antifungal activities
COc1cc(C=O)ccc1O [vanillin],antimicrobial activity against Escherichia coli,[1],antimicrobial activity
COc1cc(CCC(C)=O)ccc1O [vanillylacetone],antifungal activity against the yeast Saccharomyces cerevisiae,[2],significant antifungal activities
B1,fold more efficient than S. paucimobilis ligE beta-etherase,[3]; MUAV substrate,approximately 75 fold
same,total activity (beta-etherase),[3]; [4],529 rfu/ug
B2,total activity (beta-etherase),[3]; [4],7 rfu/ug
B3,total activity (beta-etherase),"[3]; MUAV substrate, concentration not given",1206 rfu/ug
